Test results reported in ChEMBL document CHEMBL4811298, “Discovery of novel class of histone deacetylase inhibitors as potential anticancer agents” (Bioorg Med Chem, 2021).
The source made the active and inactive calls. No cut-off for these calls is given here.

Columns and labels:
MCF7 [1] = test: Induction of apoptosis in human MCF7 cells assessed as downregulation of c-Myc gene expression at 1 uM measured after 24 hrs whole transcriptome analysis; assay type: functional, cell-based
MCF7 [2] = test: Upregulation of SIRT2 gene expression in human MCF7 cells at 3 uM incubated for 24 hrs by whole transcriptome analysis; assay type: functional, cell-based
MCF7 [3] = test: Upregulation of SIRT4 gene expression in human MCF7 cells at 3 uM incubated for 24 hrs by whole transcriptome analysis; assay type: functional, cell-based
MCF7 [4] = test: Induction of cell cycle arrest in human MCF7 cells assessed as accumulation at G2/M phase at 1 uM incubated for 24 hrs by PI staining based flow cytometric analysis; assay type: functional
MCF7 [5] = test: Induction of apoptosis in human MCF7 cells assessed as reduction in Bcl3 gene expression at 3 uM incubated for 24 hrs by whole transcriptome analysis; assay type: functional, cell-based
MCF7 [6] = test: Induction of cell cycle arrest in human MCF7 cells assessed as accumulation at G1/S phase at 1 uM incubated for 4 hrs by PI staining based flow cytometric analysis; assay type: functional
MCF7 [7] = test: Upregulation of NFkB2 gene expression in human MCF7 cells at 3 uM incubated for 24 hrs by whole transcriptome analysis; assay type: functional, cell-based
MCF7 [8] = test: Induction of apoptosis in human MCF7 cells assessed as increase in caspase 3/7 activity at 1 to 3 uM measured after 48 hrs by ELISA; assay type: functional, cell-based; conditions: dose 1-3 µM
MCF7 [9] = test: Induction of apoptosis in human MCF7 cells assessed as downregulation of c-Myc protein expression at 1 to 3 uM measured after 48 hrs western blot analysis; assay type: functional, cell-based; conditions: dose 1-3 µM
Histone deacetylase 9 = Histone deacetylase 9 (Homo sapiens, UniProt Q9UKV0); test: Inhibition of C-terminal His-tagged human HDAC9 (604 to 1066 residues) expressed in baculovirus-infected Sf9 cells assessed as reduction in 7-amino-4-methylcoumarin release measured every 5 mins by fluorescence based analysis
Histone deacetylase 1 = Histone deacetylase 1 (Homo sapiens, UniProt Q13547); test: (§1) Inhibition of C-terminal FLAG/His-tagged human recombinant HDAC1 (1 to 482 residues) expressed in baculovirus-infected Sf9 cells assessed as reduction in 7-amino-4-methylcoumarin release using fluorogenic HDAC substrate 3 measured every 5 mins by fluorescence based analysis
MCF7 [10] = test: Antiproliferative activity against human MCF7 cells assessed as reduction in cell viability incubated for 48 hrs by SRB assay; assay type: functional, cell-based; conditions: MCF7, 48 h
A549 = test: Antiproliferative activity against human A549 cells assessed as reduction in cell viability incubated for 48 hrs by SRB assay; assay type: functional, cell-based; conditions: A549, 48 h
[11] = biological target: Histone deacetylase 3/Nuclear receptor corepressor 2 (HDAC3/NCoR2) (Homo sapiens, UniProt O15379); test: as §1, with “His-tagged” for “FLAG/His-tagged”, “full length HDAC3” for “HDAC1”, “428 residues)/N-terminal GST-tagged human recombinant NCOR2 (395 to 489” for “482”
MCF7 [12] = test: Induction of apoptosis in human MCF7 cells assessed as reduction in Bcl2 gene expression at 3 uM incubated for 24 hrs by whole transcriptome analysis; assay type: functional, cell-based
Histone deacetylase 5 [13] = biological target: T1, Histone deacetylase 5 (Homo sapiens, UniProt Q9UQL6); test: Inhibition of N-terminal GST-tagged human recombinant full length HDAC5 expressed in baculovirus-infected Sf9 cells assessed as reduction in 7-amino-4-methylcoumarin release measured every 5 mins by fluorescence based analysis
Histone deacetylase 4 = Histone deacetylase 4 (Homo sapiens, UniProt P56524); test: Inhibition of N-terminal GST-tagged/C-terminal His-tagged human recombinant HDAC4 (627 to 1084 residues) expressed in baculovirus-infected Sf9 cells assessed as reduction in 7-amino-4-methylcoumarin release measured every 5 mins by fluorescence based analysis
Histone deacetylase 2 = Histone deacetylase 2 (Homo sapiens, UniProt Q92769); assay type: cell-based, Sf9
MCF7 [14] = test: Induction of cell cycle arrest in human MCF7 cells assessed as accumulation at G2/M phase at 1 uM incubated for 4 hrs by PI staining based flow cytometric analysis; assay type: functional
MCF7 [15] = test: Downregulation of SIRT4 gene expression in human MCF7 cells at 3 uM incubated for 24 hrs by whole transcriptome analysis; assay type: functional, cell-based
Histone deacetylase 7 = biological target: T2, Histone deacetylase 7 (Homo sapiens, UniProt Q8WUI4); test: Inhibition of N-terminal GST-tagged human HDAC7 (518 to end residues) expressed in baculovirus-infected Sf9 cells assessed as reduction in 7-amino-4-methylcoumarin release measured every 5 mins by fluorescence based analysis
T2 sequence (Q8WUI4 whole entry): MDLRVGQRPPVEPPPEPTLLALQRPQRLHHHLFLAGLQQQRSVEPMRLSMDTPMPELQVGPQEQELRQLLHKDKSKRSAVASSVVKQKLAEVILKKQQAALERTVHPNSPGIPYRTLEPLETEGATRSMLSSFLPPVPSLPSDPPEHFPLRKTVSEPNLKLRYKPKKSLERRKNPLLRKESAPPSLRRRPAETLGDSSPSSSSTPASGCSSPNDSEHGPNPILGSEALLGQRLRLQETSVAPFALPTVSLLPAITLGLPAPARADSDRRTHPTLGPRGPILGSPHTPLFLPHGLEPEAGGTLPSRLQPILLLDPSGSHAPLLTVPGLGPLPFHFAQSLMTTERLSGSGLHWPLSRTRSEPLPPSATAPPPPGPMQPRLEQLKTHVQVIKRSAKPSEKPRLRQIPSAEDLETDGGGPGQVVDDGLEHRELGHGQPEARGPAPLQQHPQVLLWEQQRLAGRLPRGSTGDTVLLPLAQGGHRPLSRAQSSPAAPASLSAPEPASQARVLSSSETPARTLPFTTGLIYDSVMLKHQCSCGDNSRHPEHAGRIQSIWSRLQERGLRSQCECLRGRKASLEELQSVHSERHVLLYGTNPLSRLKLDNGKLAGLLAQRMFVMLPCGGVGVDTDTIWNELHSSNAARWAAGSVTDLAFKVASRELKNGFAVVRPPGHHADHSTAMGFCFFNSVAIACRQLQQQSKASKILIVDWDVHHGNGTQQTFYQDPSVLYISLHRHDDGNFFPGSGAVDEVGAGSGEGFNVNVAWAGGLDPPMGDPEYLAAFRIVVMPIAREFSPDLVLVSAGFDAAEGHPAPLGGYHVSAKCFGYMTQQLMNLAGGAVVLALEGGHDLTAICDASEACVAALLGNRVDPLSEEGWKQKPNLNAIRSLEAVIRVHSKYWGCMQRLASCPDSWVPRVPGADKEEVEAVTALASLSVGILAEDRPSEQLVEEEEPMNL

MCF7 [16] = test: Induction of cell cycle arrest in human MCF7 cells assessed as accumulation at subG1 phase at 1 uM incubated for 24 to 72 hrs by PI staining based flow cytometric analysis; assay type: functional; conditions: time 24-72 hrs
[17] = biological target: Histone deacetylase (Homo sapiens) (UniProt Q13547+O15379+Q9UBN7+Q92769+Q9UQL6+Q8WUI4+Q9BY41+Q96DB2+P56524+Q9UKV0+Q969S8); test: Inhibition of HDAC in human MCF7 cells assessed as increase in acetylated histone H4 mRNA level at 3 uM incubated for 24 hrs by whole transcriptome analysis; assay type: cell-based
MCF7 [18] = test: Downregulation of SIRT2 gene expression in human MCF7 cells at 3 uM incubated for 24 hrs by whole transcriptome analysis; assay type: functional, cell-based
MCF7 [19] = test: Downregulation of NFkB2 gene expression in human MCF7 cells at 3 uM incubated for 24 hrs by whole transcriptome analysis; assay type: functional, cell-based
MCF7 [20] = test: Induction of cell cycle arrest in human MCF7 cells assessed downregulation of CDK1 gene expression at 3 uM incubated for 24 hrs by whole transcriptome analysis; assay type: functional, cell-based
MCF7 [21] = test: Induction of cell cycle arrest in human MCF7 cells assessed downregulation of E2F1 gene expression at 3 uM incubated for 24 hrs by whole transcriptome analysis; assay type: functional, cell-based
MCF7 [22] = test: Induction of cell cycle arrest in human MCF7 cells assessed downregulation of RB1 gene expression at 3 uM incubated for 24 hrs by whole transcriptome analysis; assay type: functional, cell-based
MCF7 [23] = test: Induction of cell cycle arrest in human MCF7 cells assessed downregulation of CDK4 gene expression at 3 uM incubated for 24 hrs by whole transcriptome analysis; assay type: functional, cell-based
MCF7 [24] = test: Induction of cell cycle arrest in human MCF7 cells assessed downregulation of CDK6 gene expression at 3 uM incubated for 24 hrs by whole transcriptome analysis; assay type: functional, cell-based
MCF7 [25] = test: Induction of cell cycle arrest in human MCF7 cells assessed downregulation of CDK2 gene expression at 3 uM incubated for 24 hrs by whole transcriptome analysis; assay type: functional, cell-based
Histone deacetylase 5 [26] = biological target: T1, Histone deacetylase 5; test: Potency index, ratio of vorinostat IC50 to test compound IC50 for Inhibition of N-terminal GST-tagged human recombinant full length HDAC5 expressed in baculovirus-infected Sf9 cells assessed as reduction in 7-amino-4-methylcoumarin release measured every 5 mins by fluorescence based analysis

T1 sequence (Q9UQL6 whole entry, the tested form may be a part): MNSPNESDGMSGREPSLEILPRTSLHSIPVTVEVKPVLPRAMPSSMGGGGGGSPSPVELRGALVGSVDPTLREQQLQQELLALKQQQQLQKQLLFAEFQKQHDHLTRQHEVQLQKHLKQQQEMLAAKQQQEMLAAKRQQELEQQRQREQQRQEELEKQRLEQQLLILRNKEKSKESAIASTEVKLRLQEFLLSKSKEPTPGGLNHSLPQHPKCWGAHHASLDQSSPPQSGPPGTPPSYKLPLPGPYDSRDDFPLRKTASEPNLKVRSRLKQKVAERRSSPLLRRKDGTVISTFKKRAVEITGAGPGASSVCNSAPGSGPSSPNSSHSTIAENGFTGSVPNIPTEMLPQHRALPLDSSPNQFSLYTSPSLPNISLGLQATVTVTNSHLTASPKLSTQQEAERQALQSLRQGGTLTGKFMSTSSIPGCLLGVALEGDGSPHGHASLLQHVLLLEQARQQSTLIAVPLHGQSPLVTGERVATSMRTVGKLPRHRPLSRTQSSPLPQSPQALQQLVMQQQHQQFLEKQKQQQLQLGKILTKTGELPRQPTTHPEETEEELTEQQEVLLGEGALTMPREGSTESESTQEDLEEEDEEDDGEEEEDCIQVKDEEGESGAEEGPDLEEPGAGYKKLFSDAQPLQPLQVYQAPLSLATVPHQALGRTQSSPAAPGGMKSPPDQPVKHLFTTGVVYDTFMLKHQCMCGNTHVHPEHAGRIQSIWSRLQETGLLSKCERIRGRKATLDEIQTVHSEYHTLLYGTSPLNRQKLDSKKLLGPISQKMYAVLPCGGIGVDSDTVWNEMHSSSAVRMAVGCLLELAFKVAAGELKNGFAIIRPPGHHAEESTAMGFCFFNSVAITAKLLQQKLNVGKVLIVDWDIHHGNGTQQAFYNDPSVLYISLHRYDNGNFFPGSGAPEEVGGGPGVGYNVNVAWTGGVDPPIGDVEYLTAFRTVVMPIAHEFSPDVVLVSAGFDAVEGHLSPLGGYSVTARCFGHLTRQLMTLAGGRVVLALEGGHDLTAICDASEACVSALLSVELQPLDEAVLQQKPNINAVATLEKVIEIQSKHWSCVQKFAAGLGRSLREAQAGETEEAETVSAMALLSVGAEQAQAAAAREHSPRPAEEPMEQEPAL
Histone deacetylase 9, sequence (Q9UKV0 whole entry, the tested form may be a part): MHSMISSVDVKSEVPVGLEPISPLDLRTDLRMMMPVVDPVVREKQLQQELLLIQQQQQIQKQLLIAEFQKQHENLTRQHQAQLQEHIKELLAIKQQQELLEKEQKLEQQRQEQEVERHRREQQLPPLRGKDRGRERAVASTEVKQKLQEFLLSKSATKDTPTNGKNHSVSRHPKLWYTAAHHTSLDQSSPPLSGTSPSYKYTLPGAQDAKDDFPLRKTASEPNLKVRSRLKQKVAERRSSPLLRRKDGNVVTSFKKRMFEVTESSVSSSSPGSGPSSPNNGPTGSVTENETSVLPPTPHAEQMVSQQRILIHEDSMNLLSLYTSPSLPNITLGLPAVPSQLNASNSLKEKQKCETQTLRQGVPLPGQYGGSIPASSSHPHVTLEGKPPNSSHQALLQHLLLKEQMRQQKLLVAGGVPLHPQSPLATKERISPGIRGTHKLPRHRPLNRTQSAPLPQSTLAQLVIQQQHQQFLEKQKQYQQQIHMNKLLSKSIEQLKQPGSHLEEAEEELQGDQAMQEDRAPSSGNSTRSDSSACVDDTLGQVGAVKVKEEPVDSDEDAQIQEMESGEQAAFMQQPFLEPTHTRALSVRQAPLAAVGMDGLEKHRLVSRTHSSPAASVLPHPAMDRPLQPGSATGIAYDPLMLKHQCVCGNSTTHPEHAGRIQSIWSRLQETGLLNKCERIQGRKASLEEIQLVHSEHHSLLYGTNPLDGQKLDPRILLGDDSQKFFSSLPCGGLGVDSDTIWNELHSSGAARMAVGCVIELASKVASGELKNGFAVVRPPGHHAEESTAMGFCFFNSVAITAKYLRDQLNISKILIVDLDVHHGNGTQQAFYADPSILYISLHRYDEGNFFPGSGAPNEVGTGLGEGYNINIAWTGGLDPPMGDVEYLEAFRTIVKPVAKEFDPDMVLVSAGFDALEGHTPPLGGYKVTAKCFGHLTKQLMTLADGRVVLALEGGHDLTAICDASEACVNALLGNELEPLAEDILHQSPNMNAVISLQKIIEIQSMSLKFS
Histone deacetylase 3/Nuclear receptor corepressor 2 (HDAC3/NCoR2), sequence (O15379 whole entry): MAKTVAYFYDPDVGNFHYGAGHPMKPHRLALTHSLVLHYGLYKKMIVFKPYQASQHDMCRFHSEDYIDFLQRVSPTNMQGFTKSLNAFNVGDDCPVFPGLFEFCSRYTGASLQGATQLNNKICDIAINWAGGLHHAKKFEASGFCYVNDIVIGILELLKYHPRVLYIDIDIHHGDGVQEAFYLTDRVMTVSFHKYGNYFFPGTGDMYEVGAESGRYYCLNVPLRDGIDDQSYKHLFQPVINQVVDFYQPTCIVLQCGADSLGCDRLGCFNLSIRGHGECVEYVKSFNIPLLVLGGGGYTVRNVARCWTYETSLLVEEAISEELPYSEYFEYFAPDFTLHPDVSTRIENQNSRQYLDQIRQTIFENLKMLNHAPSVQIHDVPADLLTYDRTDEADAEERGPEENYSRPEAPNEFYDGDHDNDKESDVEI
Histone deacetylase 3/Nuclear receptor corepressor 2 (HDAC3/NCoR2), sequence (Q9Y618 whole entry, further chain): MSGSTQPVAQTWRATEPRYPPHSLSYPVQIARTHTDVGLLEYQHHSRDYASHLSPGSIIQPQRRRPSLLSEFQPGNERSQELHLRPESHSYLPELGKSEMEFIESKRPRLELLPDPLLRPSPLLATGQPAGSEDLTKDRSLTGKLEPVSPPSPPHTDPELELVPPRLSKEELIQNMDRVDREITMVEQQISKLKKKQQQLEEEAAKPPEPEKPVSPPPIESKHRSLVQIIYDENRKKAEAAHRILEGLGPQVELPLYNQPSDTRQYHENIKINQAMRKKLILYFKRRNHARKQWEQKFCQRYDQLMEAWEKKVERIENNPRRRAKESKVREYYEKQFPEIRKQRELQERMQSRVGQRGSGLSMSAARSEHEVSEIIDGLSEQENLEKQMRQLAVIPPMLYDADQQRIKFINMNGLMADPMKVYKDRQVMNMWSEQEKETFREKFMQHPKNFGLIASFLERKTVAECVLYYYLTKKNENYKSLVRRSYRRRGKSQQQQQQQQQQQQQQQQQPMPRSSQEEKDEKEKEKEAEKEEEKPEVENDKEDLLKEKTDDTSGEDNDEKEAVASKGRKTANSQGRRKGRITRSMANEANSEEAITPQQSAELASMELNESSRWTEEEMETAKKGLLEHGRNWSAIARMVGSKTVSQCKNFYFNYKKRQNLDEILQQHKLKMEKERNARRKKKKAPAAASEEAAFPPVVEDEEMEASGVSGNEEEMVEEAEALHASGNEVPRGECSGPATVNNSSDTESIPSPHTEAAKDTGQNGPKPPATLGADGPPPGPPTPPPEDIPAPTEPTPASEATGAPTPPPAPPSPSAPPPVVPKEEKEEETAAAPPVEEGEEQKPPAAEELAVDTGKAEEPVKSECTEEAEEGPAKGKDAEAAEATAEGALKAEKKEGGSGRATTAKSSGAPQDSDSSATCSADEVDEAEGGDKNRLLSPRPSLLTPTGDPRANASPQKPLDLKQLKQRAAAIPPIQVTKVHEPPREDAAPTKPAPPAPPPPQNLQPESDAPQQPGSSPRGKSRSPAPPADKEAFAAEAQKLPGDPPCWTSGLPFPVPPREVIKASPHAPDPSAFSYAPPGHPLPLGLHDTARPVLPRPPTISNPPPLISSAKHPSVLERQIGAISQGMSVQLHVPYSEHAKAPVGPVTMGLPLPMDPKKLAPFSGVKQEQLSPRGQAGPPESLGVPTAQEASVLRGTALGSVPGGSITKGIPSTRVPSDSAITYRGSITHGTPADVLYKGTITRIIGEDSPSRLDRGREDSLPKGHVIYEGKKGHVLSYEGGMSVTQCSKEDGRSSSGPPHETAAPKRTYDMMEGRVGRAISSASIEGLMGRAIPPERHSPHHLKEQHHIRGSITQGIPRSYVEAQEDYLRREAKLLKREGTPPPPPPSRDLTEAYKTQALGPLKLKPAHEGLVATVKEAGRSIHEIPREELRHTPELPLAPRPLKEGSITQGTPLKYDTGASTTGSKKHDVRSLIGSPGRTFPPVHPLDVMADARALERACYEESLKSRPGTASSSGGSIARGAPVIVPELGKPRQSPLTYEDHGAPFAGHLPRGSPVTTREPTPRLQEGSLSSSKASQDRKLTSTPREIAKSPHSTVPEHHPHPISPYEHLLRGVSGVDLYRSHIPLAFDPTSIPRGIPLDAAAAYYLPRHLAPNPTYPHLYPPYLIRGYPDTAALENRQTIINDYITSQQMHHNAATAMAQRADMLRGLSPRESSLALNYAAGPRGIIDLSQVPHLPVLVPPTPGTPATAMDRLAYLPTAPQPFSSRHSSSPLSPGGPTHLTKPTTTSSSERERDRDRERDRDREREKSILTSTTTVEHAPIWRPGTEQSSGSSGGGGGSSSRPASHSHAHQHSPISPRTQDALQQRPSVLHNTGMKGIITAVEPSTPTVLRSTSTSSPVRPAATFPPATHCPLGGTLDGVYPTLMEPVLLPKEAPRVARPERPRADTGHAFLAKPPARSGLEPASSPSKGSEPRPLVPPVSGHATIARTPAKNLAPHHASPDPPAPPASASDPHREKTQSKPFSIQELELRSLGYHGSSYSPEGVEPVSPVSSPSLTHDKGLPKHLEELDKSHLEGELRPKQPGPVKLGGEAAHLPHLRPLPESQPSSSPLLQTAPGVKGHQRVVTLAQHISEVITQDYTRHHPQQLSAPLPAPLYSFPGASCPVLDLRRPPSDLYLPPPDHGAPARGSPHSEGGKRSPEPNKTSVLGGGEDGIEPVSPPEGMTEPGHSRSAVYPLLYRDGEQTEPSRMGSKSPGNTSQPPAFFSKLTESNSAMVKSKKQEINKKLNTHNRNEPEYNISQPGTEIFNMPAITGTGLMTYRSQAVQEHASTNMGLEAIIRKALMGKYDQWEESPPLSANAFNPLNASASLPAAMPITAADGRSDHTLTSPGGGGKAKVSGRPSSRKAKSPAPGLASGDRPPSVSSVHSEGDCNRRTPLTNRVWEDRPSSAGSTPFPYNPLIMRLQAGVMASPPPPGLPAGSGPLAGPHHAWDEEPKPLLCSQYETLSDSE

| IC50 (Histone deacetylase 9) | IC50 (Histone deacetylase 1) | IC50 (MCF7 [10]) | IC50 (A549) | IC50 [11] | IC50 (Histone deacetylase 5 [13]) | IC50 (Histone deacetylase 4) | IC50 (Histone deacetylase 2) | IC50 (Histone deacetylase 7) | Structure (SMILES) | Activity (MCF7 [1]) | Activity (MCF7 [4]) | Activity (MCF7 [5]) | Activity (MCF7 [6]) | Activity (MCF7 [7]) | Activity (MCF7 [8]) | Activity (MCF7 [9]) | Activity (MCF7 [12]) | inhibition (MCF7 [15]) | Activity (MCF7 [16]) | inhibition (MCF7 [18]) | further results |
| --- | --- | --- | --- | --- | --- | --- | --- | --- | --- | --- | --- | --- | --- | --- | --- | --- | --- | --- | --- | --- | --- |
|  |  |  |  |  |  |  |  |  | O=C(CCCCCCC(=O)Nc1ccccc1)NO | Active | Active | inactive | Active | Active | Active | Active |  |  |  |  | Activity (MCF7 [2]): Active; Activity (MCF7 [3]): Active |
| 1.3 µM | > 10 µM | 0.7 µM | > 10 µM | 2.12 µM | 12.4 µM | > 10 µM | > 10 µM | 6.1 µM | CC(C)(C)Nc1c(-c2cccc(C(=O)Nc3ccc(F)cc3N)c2)nc2ccccn12 | Active | Active | Active |  | Active | Active | Active | Active | Active | Active | Active | Activity (MCF7 [14]): Active; inhibition [17]: Active |
| 0.818 µM | > 10 µM | > 10 µM | > 10 µM | > 10 µM | 0.31 µM | 1.65 µM | > 10 µM | 4.85 µM | CC(C)(C)Nc1c(-c2cccc(-c3nc4cc(-c5noc(C(F)(F)F)n5)ccc4[nH]3)c2)nc2ccccn12 | Active |  | Active | Active |  | Active |  | Active | Active | inactive | Active | inhibition (MCF7 [19]): Active; Activity (MCF7 [20]): Active; Activity (MCF7 [21]): Active; Activity (MCF7 [22]): Active; Ratio IC50 (Histone deacetylase 5 [26]): > 33; Activity (MCF7 [23]): Active; Activity (MCF7 [24]): Active; Activity (MCF7 [25]): Active |

| Structure (SMILES) | IC50 (Histone deacetylase 9) | IC50 (Histone deacetylase 1) | IC50 (MCF7 [10]) | IC50 (A549) | IC50 [11] | IC50 (Histone deacetylase 5 [13]) | IC50 (Histone deacetylase 4) | IC50 (Histone deacetylase 2) | IC50 (Histone deacetylase 7) | Activity (MCF7 [1]) | Activity (MCF7 [4]) | Activity (MCF7 [5]) | Activity (MCF7 [6]) | Activity (MCF7 [7]) | Activity (MCF7 [8]) | Activity (MCF7 [9]) | Activity (MCF7 [12]) | inhibition (MCF7 [15]) | Activity (MCF7 [16]) | inhibition (MCF7 [18]) | further results |
| --- | --- | --- | --- | --- | --- | --- | --- | --- | --- | --- | --- | --- | --- | --- | --- | --- | --- | --- | --- | --- | --- |
| CC(C)(C)Nc1c(-c2ccc(-c3noc(C(F)(F)F)n3)cc2)nc2ccccn12 | 2.31 µM | > 10 µM | > 10 µM | > 10 µM | > 10 µM | 0.812 µM | 3.58 µM | > 10 µM | 6.9 µM |  | Active | Active |  |  | Active |  | Active | Active | Active | Active | inhibition (MCF7 [19]): Active; Activity (MCF7 [20]): Active; Activity (MCF7 [21]): Active; Activity (MCF7 [22]): Active; Activity (MCF7 [14]): Active; Activity (MCF7 [23]): Active; Activity (MCF7 [24]): Active; Activity (MCF7 [25]): Active |
